The results in this text go back to patent US6960608B2, “Fused indazoles and indoles and their use for the treatment of glaucoma” (Alcon, Inc., priority 2001, dated 2005).

In general, EC50 refers to the concentration at which the effect is half-maximal. In general, Emax refers to the maximal effect, on the per cent scale that the assay sets. As usually defined, the melting point is the temperature of the solid-liquid transition.

Series [1] has as its target T1, 5-HT2 receptor (Rattus norvegicus, UniProt P14842).
T1 construct: A7r5 rat vascular smooth muscle cells; endogenous in cells; host or cells: A7r5 rat vascular smooth muscle cells
The experiment in a line: 5-HT2 functional assay: phosphoinositide (PI) turnover assay. The conditions noted are these: for Emax: A7R5, read-out: Efficacy (Emax, %). The format is cell-based. The procedure: The relative agonist activity of serotonergic compounds at the 5-HT2 receptor can be determined in vitro using the ability of the compounds to stimulate the production of [^3H]inositol phosphates in [^3H]myo-inositol-labeled A7r5 rat vascular smooth muscle cells by their ability to activate the enzyme phospholipase C. These cells are grown in culture plates, maintained in a humidified atmosphere of 5% CO2 and 95% air and fed semi-weekly with Dulbecco's modified Eagle medium (DMEM) containing 4.5 g/L glucose and supplemented with 2 mM glutamine, 10 μg/ml gentamicin, and 10% fetal bovine serum. For the purpose of conducting the phosphoinositide (PI) turnover experiments, the A7r5 cells are cultured in 24-well plates as previously [J. Pharmacol. Expt. Ther. 286, 411 (1998)]. Confluent cells are exposed for 24-30 hrs to 1.5 μCi [^3H]-myo-inositol (18.3 Ci/mmol) in 0.5 mL of serum-free medium. Cells are then rinsed once with DMEM/F-12 containing 10 mM LiCl prior to incubation with the test agent (or solvent as the control) in 1.0 mL of the same medium for 1 hr at 37° C., after which the medium is aspirated and 1 mL of cold 0.1 M formic acid added to stop the reaction. The chromatographic separation of [^3H]-inositol phosphates ([^3H]-IPs) on an AG-1-X8 column is performed as previously described [J. Pharmacol. Expt. Ther. 286, 411 (1998)] with sequential washes with H2O and 50 mM ammonium formate, followed by elution of the total [^3H]-IPs fraction with 1.2 M ammonium formate containing 0.1 M formic acid. The eluate (4 mL) is collected, mixed with 15 ml scintillation fluid, and the total [^3H]-IPs determined by scintillation counting on a beta-counter. Concentration-response data are analyzed by the sigmoidal fit function of the Origin Scientific Graphics software (Microcal Software, Northampton, MA) to determine agonist potency (EC50 value) and efficacy (Emax).

Series [2] deals with lasered (hypertensive) eyes of conscious cynomolgus monkeys. The experiment in a line: Acute IOP response in lasered (hypertensive) eyes of conscious cynomolgus monkeys. Type of series: in vivo, cynomolgus monkey. To be noted: 300 μg topical, lasered eye. The procedure:
Intraocular pressure (IOP) was determined with an Alcon Pneumatonometer after light corneal anesthesia with 0.1% proparacaine. Eyes were washed with saline after each measurement. After a baseline IOP measurement, test compound was instilled in one 30 μL aliquot to the right eyes only of nine cynomolgus monkeys. Vehicle was instilled in the right eyes of six additional animals. Subsequent IOP measurements were taken at 1, 3, and 6 hours. A compound is considered efficacious in this model of ocular hypertension if there is a decrease in the baseline IOP of the lasered eye (O.D.) of at least 20% following topical administration.

T1 sequence (P14842 whole entry): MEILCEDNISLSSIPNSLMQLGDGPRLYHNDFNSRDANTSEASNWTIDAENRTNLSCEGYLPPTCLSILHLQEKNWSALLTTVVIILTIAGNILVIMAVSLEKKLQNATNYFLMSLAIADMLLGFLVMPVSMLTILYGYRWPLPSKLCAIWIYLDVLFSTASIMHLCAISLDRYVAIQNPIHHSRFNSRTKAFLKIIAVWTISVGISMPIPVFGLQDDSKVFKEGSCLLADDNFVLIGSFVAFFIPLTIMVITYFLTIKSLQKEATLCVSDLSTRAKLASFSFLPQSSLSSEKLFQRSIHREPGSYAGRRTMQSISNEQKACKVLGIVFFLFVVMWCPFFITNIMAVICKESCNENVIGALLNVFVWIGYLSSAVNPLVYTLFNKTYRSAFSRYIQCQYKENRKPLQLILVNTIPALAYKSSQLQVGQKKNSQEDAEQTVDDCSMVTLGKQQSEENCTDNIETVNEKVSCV

For `CC(N)Cn1nc2c3c(cc(O)cc31)CCC2.Cl.Cl` (stereo not drawn) [Example 1, 2-(2-Aminopropyl)-2,6,7,8-tetrahydro-benzo[cd]indazol-4-ol dihydrochloride], the melting point lay within 286 to 288 °C. In series [1], the concentration giving a half-maximal response (EC50) amounted to 0.374 µM and the maximal response (Emax) was 85%. Moreover, the “Percent Change in IOP ± SEM” value in series [2] (1 hour after dose) is −5.9 ± 2.69%. In addition, the “Percent Change in IOP ± SEM” value in series [2] (3 hours after dose) was −20.0 ± 3.54%. Besides, in series [2] (6 hours after dose), the “Percent Change in IOP ± SEM” value is recorded as −21.6 ± 4.91%.
Turning to `CC(N)Cn1nc2c3c(ccc(O)c31)CCC2.Cl.Cl` (stereo not drawn) [Example 2, 2-(2-Aminopropyl)-2,6,7,8-tetrahydro-benzo[cd]indazol-3-ol dihydrochloride], the melting point was 284 to 286 °C. In series [1], the EC50 came out at 1.44 µM and the Emax stood at 55%.
